Assay results from patent US20260317324A1, “BIFUNCTIONAL COMPOUNDS FOR DEGRADING BRAF VIA UBIQUITIN PROTEOSOME PATHWAY” (Nurix Therapeutics, Inc., priority 2023, published 2026).

Experiments:
Format in all cases: cell-based
BRAF V600E = biological target: T1, BRAF V600E (Homo sapiens, UniProt P15056, V600E); test: BRAF HiBiT degradation assay, C-terminal HiBiT-tagged BRAF V600E A375 cells (clone 1F10), Nano-Glo HiBiT Lytic assay; conditions: for Dmax: A-375
T1 construct: endogenous C-terminal HiBiT fusion tag on BRAF V600E allele; endogenous in cells; host or cells: A375 clone 1F10 (CRISPR-Cas9 knock-in of the HiBiT tag; parental A375 from ATCC)
Method in brief: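 A375 cells with CRISPR knock-in C-terminal HiBiT on endogenous BRAF V600E (clone 1F10) were seeded and cultured 24 h at 37 °C, then dosed with an 11-point half-log series (1 μM to 0.01 nM, duplicate, 0.2% DMSO). Lytic HiBiT luminescence gave % protein remaining; DC50 was the fitted concentration at 50%.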

BRAF G466V = biological target: T2, BRAF G466V (Homo sapiens, UniProt P15056, G466V); test: BRAF HiBiT degradation assay, C-terminal HiBiT-tagged BRAF G466V overexpressed in HCT-116 BRAF−/− cells (clone 8), Nano-Glo HiBiT Lytic assay
T2 construct: Horizon Discovery (HCT-116 BRAF−/− cells); host or cells: HCT-116 BRAF−/− cells, clone 8, lentiviral transduction
Method in brief: (§1)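 HCT-116 BRAF−/− cells stably expressing the tagged mutant were seeded at 3,000 cells/well and grown 24 h at 37 °C before an 11-point half-log series from 1 μM to 0.01 nM, run in duplicate at 0.2% DMSO. Lytic HiBiT luminescence gave % protein remaining versus DMSO controls; DC50 was the fitted concentration at 50%.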

BRAF G469A = biological target: T3, BRAF G469A (Homo sapiens, UniProt P15056, G469A); test: BRAF HiBiT degradation assay, C-terminal HiBiT-tagged BRAF G469A overexpressed in HCT-116 BRAF−/− cells (clone 34), Nano-Glo HiBiT Lytic assay
T3 construct: Horizon Discovery (HCT-116 BRAF−/− cells); host or cells: HCT-116 BRAF−/− cells, clone 34, lentiviral transduction
Method in brief: as §1

BRAF D594G = biological target: T4, BRAF D594G (Homo sapiens, UniProt P15056, D594G); test: BRAF HiBiT degradation assay, C-terminal HiBiT-tagged BRAF D594G overexpressed in HCT-116 BRAF−/− cells (clone 63), Nano-Glo HiBiT Lytic assay
T4 construct: Horizon Discovery (HCT-116 BRAF−/− cells); host or cells: HCT-116 BRAF−/− cells, clone 63, lentiviral transduction
Method in brief: as §1

[1] = A375 (BRAF V600E, Class 1), DC50 at 50% degradation
[2] = A375 (BRAF V600E, Class 1), observed Dmax, % protein degraded relative to DMSO control
[3] = BRAF G466V (Class 3), HCT-116 BRAF−/− cells, DC50 at 50% degradation
[4] = BRAF G466V (Class 3), HCT-116 BRAF−/− cells, observed Dmax relative to DMSO control
[5] = BRAF G469A (Class 2), HCT-116 BRAF−/− cells, DC50 at 50% degradation
[6] = BRAF G469A (Class 2), HCT-116 BRAF−/− cells, observed Dmax relative to DMSO control
[7] = BRAF D594G (Class 3), HCT-116 BRAF−/− cells, DC50 at 50% degradation
[8] = BRAF D594G (Class 3), HCT-116 BRAF−/− cells, observed Dmax relative to DMSO control
[9] = A375 (BRAF V600E), DC50 at 50%: fitted conc. at Y=50
[10] = A375 (BRAF V600E), percentage protein degraded at maximal compound effect relative to DMSO
[11] = BRAF G466V, DC50 at 50%: fitted conc. at Y=50
[12] = HCT-116, BRAF G466V, percentage protein degraded at maximal compound effect relative to DMSO
[13] = Class 2, BRAF G469A, DC50 at 50%: fitted conc. at Y=50
[14] = HCT-116, Class 2, BRAF G469A, percentage protein degraded at maximal compound effect relative to DMSO
[15] = BRAF D594G, DC50 at 50%: fitted conc. at Y=50
[16] = HCT-116, BRAF D594G, percentage protein degraded at maximal compound effect relative to DMSO

T3 sequence (P15056 whole entry G469A): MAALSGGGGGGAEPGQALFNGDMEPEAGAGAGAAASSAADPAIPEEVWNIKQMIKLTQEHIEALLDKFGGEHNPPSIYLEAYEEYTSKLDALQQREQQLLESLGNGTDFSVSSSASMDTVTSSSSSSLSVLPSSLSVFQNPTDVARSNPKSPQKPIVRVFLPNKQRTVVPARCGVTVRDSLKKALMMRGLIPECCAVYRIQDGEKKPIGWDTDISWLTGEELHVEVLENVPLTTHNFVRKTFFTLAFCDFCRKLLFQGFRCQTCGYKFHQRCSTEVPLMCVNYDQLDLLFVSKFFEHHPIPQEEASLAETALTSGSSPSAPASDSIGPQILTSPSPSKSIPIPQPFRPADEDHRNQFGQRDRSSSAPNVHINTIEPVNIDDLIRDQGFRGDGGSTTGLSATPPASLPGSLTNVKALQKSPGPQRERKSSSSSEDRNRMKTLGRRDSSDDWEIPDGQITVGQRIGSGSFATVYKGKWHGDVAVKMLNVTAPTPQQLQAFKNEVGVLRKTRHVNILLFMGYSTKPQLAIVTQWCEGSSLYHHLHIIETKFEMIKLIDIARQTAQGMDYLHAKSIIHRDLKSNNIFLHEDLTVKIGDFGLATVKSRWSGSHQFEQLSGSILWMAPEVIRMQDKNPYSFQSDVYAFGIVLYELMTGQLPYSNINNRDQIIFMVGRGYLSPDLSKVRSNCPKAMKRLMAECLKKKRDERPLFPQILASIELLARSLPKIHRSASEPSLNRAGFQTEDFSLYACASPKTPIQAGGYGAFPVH
T4 sequence (P15056 whole entry D594G): as the sequence (P15056 whole entry G469A) above, with A469G, D594G counted along it
T1 sequence (P15056 whole entry V600E, the tested form may be a part): as the sequence (P15056 whole entry G469A) above, with A469G, V600E counted along it
T2 sequence (P15056 whole entry G466V): as the sequence (P15056 whole entry G469A) above, with G466V, A469G counted along it

DC50 (BRAF V600E; [1]) [nM]	Dmax (BRAF V600E; [2]) [%]	DC50 (BRAF G466V; [3]) [nM]	Dmax (BRAF G466V; [4]) [%]	DC50 (BRAF G469A; [5]) [nM]	Dmax (BRAF G469A; [6]) [%]	DC50 (BRAF D594G; [7]) [nM]	Dmax (BRAF D594G; [8]) [%]	DC50 (BRAF V600E; [9]) [nM]	Dmax (BRAF V600E; [10]) [%]	DC50 (BRAF G466V; [11]) [nM]	Dmax (BRAF G466V; [12]) [%]	DC50 (BRAF G469A; [13]) [nM]	Dmax (BRAF G469A; [14]) [%]	DC50 (BRAF D594G; [15]) [nM]	Dmax (BRAF D594G; [16]) [%]	Compound
< 10	> 70	< 10	> 70	10 to 50	30 to 70	< 10	30 to 70									O=C1CC[C@H](c2ccc(N3CCC(CN4CCN(c5ccc(-n6cc(-c7cc(F)cc(NS(=O)(=O)N8CCCC8)c7F)c(-c7ccncc7)n6)cc5)CC4)CC3)cc2)C(=O)N1 [Compound 299, N-{3-[1-(4-{4-[(1-{4-[(3R)-2,6-dioxopiperidin-3-yl]phenyl}piperidin-4-yl)methyl]piperazin-1-yl}phenyl)-3-(pyridin-4-yl)-1H-pyrazol-4-yl]-2,5-difluorophenyl}pyrrolidine-1-sulfonamide]
< 10	> 70	10 to 50	> 70	10 to 50	> 70	< 10	> 70									O=C1CC[C@H](c2ccc(N3CCC(CN4CCN(c5ccc(-n6cc(-c7cc(Cl)cc(NS(=O)(=O)C8CCCC8)c7F)c(-c7ccncc7)n6)cc5)CC4)CC3)nc2)C(=O)N1 [Compound 372, N-{5-chloro-3-[1-(4-{4-[(1-{5-[(3R)-2,6-dioxopiperidin-3-yl]pyridin-2-yl}piperidin-4-yl)methyl]piperazin-1-yl}phenyl)-3-(pyridin-4-yl)-1H-pyrazol-4-yl]-2-fluorophenyl}cyclopentanesulfonamide]
								< 10	> 70	< 10	> 70	10 to 50	30 to 70	< 10	> 70	CCN(C)S(=O)(=O)Nc1cccc(-c2nc(C3CCN(C(=O)C4CCN(C(=O)C5CCN(c6ccc(C7CCC(=O)NC7=O)cn6)CC5)CC4)CC3)sc2-c2ccnc(N)n2)c1F (racemic) [Compound 209, Rac-(3S)-3-{6-[4-(4-{4-[5-(2-aminopyrimidin-4-yl)-4-(3-{[ethyl(methyl)sulfamoyl]amino}-2-fluorophenyl)-1,3-thiazol-2-yl]piperidine-1-carbonyl}piperidine-1-carbonyl)piperidin-1-yl]pyridin-3-yl}piperidine-2,6-dione]
10 to 50	> 70	10 to 50	> 70	50 to 500	30 to 70	< 10	30 to 70									CCN(C)S(=O)(=O)Nc1cc(Cl)cc(-c2cn(-c3ccc(N4CCN(CC5CCN(c6ccc(N7CCC(=O)NC7=O)cn6)CC5)CC4)cn3)nc2-c2ccncc2)c1F [Compound 313, 1-(6-{4-[(4-{6-[4-(5-chloro-3-{[ethyl(methyl)sulfamoyl]amino}-2-fluorophenyl)-3-(pyridin-4-yl)-1H-pyrazol-1-yl]pyridin-3-yl}piperazin-1-yl)methyl]piperidin-1-yl}pyridin-3-yl)-1,3-diazinane-2,4-dione]
< 10	> 70	< 10	> 70	< 10	> 70	< 10	30 to 70									O=C1CC[C@H](c2ccc(N3CCC(CN4CCN(c5ccc(-n6cc(-c7cc(Cl)cc(NS(=O)(=O)N8CC(F)C8)c7F)c(-c7ccncc7)n6)cc5)CC4)CC3)nc2)C(=O)N1 [Compound 331, N-{5-chloro-3-[1-(4-{4-[(1-{5-[(3R)-2,6-dioxopiperidin-3-yl]pyridin-2-yl}piperidin-4-yl)methyl]piperazin-1-yl}phenyl)-3-(pyridin-4-yl)-1H-pyrazol-4-yl]-2-fluorophenyl}-3-fluoroazetidine-1-sulfonamide]
< 10	> 70	< 10	30 to 70	< 10	30 to 70	< 10	30 to 70									O=C1CCN(c2ccc(N3CCC(CN4CCN(c5ccc(-n6cc(-c7cc(Cl)cc(NS(=O)(=O)N8CC[C@@H](F)C8)c7F)c(-c7ccncc7)n6)c(F)c5)CC4)CC3)nc2)C(=O)N1 [Compound 371, (3R)—N-[5-chloro-3-(1-{4-[4-({1-[5-(2,4-dioxo-1,3-diazinan-1-yl)pyridin-2-yl]piperidin-4-yl}methyl)piperazin-1-yl]-2-fluorophenyl}-3-(pyridin-4-yl)-1H-pyrazol-4-yl)-2-fluorophenyl]-3-fluoropyrrolidine-1-sulfonamide]
< 10	> 70	10 to 50	> 70	10 to 50	30 to 70	10 to 50	30 to 70									O=C1CC[C@H](c2ccc(N3CCC(CN4CCN(c5ccc(-n6cc(-c7cc(Cl)cc(NS(=O)(=O)C8CCCC8)c7F)c(-c7ccncc7)n6)cc5)CC4)CC3)cc2)C(=O)N1 [Compound 374, N-{5-chloro-3-[1-(4-{4-[(1-{4-[(3R)-2,6-dioxopiperidin-3-yl]phenyl}piperidin-4-yl)methyl]piperazin-1-yl}phenyl)-3-(pyridin-4-yl)-1H-pyrazol-4-yl]-2-fluorophenyl}cyclopentanesulfonamide]
< 10	> 70	50 to 500	30 to 70	> 500	30 to 70	> 500	30 to 70									CCCS(=O)(=O)Nc1cccc(-c2nc(C3CCN(C(=O)C4CCN(CC5CCN(c6ccc(C7CCC(=O)NC7=O)cn6)CC5)CC4)CC3)sc2-c2ccnc(N)n2)c1F (racemic) [Compound 261, Rac-N-{3-[5-(2-aminopyrimidin-4-yl)-2-(1-{1-[(1-{5-[(3R)-2,6-dioxopiperidin-3-yl]pyridin-2-yl}piperidin-4-yl)methyl]piperidine-4-carbonyl}piperidin-4-yl)-1,3-thiazol-4-yl]-2-fluorophenyl}propane-1-sulfonamide]
< 10	> 70	< 10	> 70	10 to 50	> 70	< 10	> 70									O=C1CC[C@@H](c2ccc(N3CCC(CN4CCN(c5ccc(-n6cc(-c7cc(Cl)cc(NS(=O)(=O)N8CCCC8)c7F)c(-c7ccncc7)n6)nc5)CC4)CC3)nc2)C(=O)N1 [Compound 383, N-{5-chloro-3-[1-(5-{4-[(1-{5-[(3S)-2,6-dioxopiperidin-3-yl]pyridin-2-yl}piperidin-4-yl)methyl]piperazin-1-yl}pyridin-2-yl)-3-(pyridin-4-yl)-1H-pyrazol-4-yl]-2-fluorophenyl}pyrrolidine-1-sulfonamide]
< 10	> 70	< 10	> 70	< 10	> 70	< 10	> 70									O=C1CC[C@H](c2ccc(N3CCC(CN4CCN(c5cc(F)c(-n6cc(-c7cc(Cl)cc(NS(=O)(=O)N8CCCC8)c7F)c(-c7ccncc7)n6)cc5F)CC4)CC3)cc2)C(=O)N1 [Compound 353, N-{5-chloro-3-[1-(4-{4-[(1-{4-[(3R)-2,6-dioxopiperidin-3-yl]phenyl}piperidin-4-yl)methyl]piperazin-1-yl}-2,5-difluorophenyl)-3-(pyridin-4-yl)-1H-pyrazol-4-yl]-2-fluorophenyl}pyrrolidine-1-sulfonamide]
								< 10	> 70	> 500	< 30	> 500	< 30	> 500	30 to 70	CCCS(=O)(=O)Nc1cccc(-c2nc(C(C)(C)C)sc2-c2ccnc(Nc3cnn(CC4CCN(C(=O)[C@H]5CC[C@H](Oc6ccc(C7CCC(=O)NC7=O)cn6)CC5)CC4)c3)n2)c1F (mixture of isomers) [Compound 117, N-{3-[2-tert-butyl-5-(2-{[1-({1-[(1r,4r)-4-({5-[(3RS)-2,6-dioxopiperidin-3-yl]pyridin-2-yl}oxy)cyclohexanecarbonyl]piperidin-4-yl}methyl)-1H-pyrazol-4-yl]amino}pyrimidin-4-yl)-1,3-thiazol-4-yl]-2-fluorophenyl}propane-1-sulfonamide]
